Earlier results as cited in US20230149278A1, “METHOD FOR DYEING KERATIN MATERIAL, COMPRISING THE USE OF AN ORGANOSILICON COMPOUND, A POLYSACCHARIDE, A COLORING COMPOUND AND A POST-TREATMENT AGENT” (Henkel AG & Co. KGaA, priority 2020, published 2023).

Conditions: water at 25° C.

solubility in water (in words)	Compound
readily soluble	O=C(O)C1=NN(c2ccc(S(=O)(=O)O)cc2)C(=O)C1N=Nc1ccc(S(=O)(=O)O)cc1 (stereo not drawn) [Acid Yellow 23, 4,5-dihydro-5-oxo-1-(4-sulfophenyl)-4-((4-sulfophenyl)azo)-1H-pyrazole-3-carboxylic acid]

Same assay, conditions: water, 25° C.

solubility in water	Compound
more than 20 wt. %	CCN(Cc1cccc(S(=O)(=O)[O-])c1)c1ccc(C(=C2C=CC(=[N+](CC)Cc3cccc(S(=O)(=O)[O-])c3)C=C2)c2ccccc2S(=O)(=O)[O-])cc1.[Na+].[Na+] [Acid Blue 9]
2,5 g/L	Nc1cc(S(=O)(=O)[O-])cc2cc(S(=O)(=O)[O-])c(N=Nc3ccccc3)c(O)c12.[Na+].[Na+] [Acid Red 33, disodium salt of 5-amino-4-hydroxy-3-(phenylazo)-naphthalene-2,7-disulphonate]
20 g/L	mixture of the sodium salts of mono- and disulfonic acids of 2-(2-quinolyl)-1H-indene-1,3(2H)-dione [Acid Yellow 3]

Compound	solubility in water
O=S(=O)([O-])c1ccc(N=Nc2c(O)ccc3ccccc23)cc1.[Na+] [Acid Orange 7, sodium salt of 4-[(2-hydroxy-1-naphthyl)azo]benzene sulfonate]	more than 7 g/L
O=C([O-])c1c(Cl)c(Cl)c(Cl)c(Cl)c1-c1c2c(Br)cc(=O)c(Br)c-2oc2c(Br)c(O)cc(Br)c12.O=C([O-])c1c(Cl)c(Cl)c(Cl)c(Cl)c1-c1c2c(Br)cc(=O)c(Br)c-2oc2c(Br)c(O)cc(Br)c12.[Na+].[Na+] [Acid Red 92, disodium salt of 3,4,5,6-tetrachloro-2-(1,4,5,8-tetrabromo-6-hydroxy-3-oxoxanthen-9-yl)benzoic acid]	greater than 10 g/L
